Test results from publication PMC6591251, “Discovery of potent necroptosis inhibitors targeting RIPK1 kinase activity for the treatment of inflammatory disorder and cancer metastasis” (Cell Death & Disease, 2019).

Experiments:
Experiment in all cases: RBC kinase panel
Assay type in all cases: biochemical
Settings in all cases: ATP 10 μM, Data1, Data2
CSK = biological target: T1, CSK (Homo sapiens, UniProt P41240)
T1 construct: purchased Reaction Biology Corporation
Experimental: (§1) PK68 was tested at 1 μM in duplicate against a panel of 369 human kinases at Reaction Biology Corporation. Results are viewed in the human kinome phylogenetic tree.
(§2) ^a Compound PK68 was tested at 1 μM in duplicate against 369 kinases using the RBC kinase panel service of Reaction Biology Corporation. All the ATP concentrations used were 10 μM. […] Full protocol details are available at http://www.reactionbiology.com.

CDK17/cyclin Y (PCTK2) = biological target: T2, CDK17/cyclin Y (PCTK2) (Homo sapiens, UniProt Q00537)
T2 construct: purchased Reaction Biology Corporation
T2 sequence (Q00537 whole entry): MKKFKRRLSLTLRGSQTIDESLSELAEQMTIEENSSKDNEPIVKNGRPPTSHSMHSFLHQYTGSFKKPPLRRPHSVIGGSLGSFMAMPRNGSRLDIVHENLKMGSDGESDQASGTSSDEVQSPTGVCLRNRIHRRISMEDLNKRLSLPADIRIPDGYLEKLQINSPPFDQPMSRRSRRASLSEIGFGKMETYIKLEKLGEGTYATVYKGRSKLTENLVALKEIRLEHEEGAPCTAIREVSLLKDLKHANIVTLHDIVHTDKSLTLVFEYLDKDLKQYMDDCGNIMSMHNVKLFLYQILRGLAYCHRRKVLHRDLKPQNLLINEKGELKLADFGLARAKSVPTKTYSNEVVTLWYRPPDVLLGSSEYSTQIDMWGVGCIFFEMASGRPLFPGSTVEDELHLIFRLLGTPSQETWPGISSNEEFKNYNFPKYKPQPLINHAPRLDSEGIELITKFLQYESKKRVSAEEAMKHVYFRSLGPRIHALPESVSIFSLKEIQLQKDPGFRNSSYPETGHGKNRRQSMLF
T2 sequence (Q8ND76 whole entry partner): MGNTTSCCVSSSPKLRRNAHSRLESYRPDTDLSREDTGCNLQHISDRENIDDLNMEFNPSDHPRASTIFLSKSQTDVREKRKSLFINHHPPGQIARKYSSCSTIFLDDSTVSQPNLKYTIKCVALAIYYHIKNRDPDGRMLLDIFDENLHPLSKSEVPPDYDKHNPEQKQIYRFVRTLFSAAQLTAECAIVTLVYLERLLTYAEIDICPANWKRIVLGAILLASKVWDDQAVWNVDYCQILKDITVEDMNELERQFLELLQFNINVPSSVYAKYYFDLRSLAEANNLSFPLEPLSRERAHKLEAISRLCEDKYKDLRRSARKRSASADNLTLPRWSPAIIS
Experimental: as §1, §2

MRCKb/CDC42BPB = biological target: T3, MRCKb/CDC42BPB (Homo sapiens, UniProt Q9Y5S2)
T3 construct: purchased Reaction Biology Corporation
Experimental: as §1, §2

CDK1/cyclin A = biological target: T4, CDK1/cyclin A (Homo sapiens, UniProt P06493)
T4 construct: purchased Reaction Biology Corporation
Experimental: as §1, §2

RET = biological target: T5, RET (Homo sapiens, UniProt P07949)
T5 construct: purchased Reaction Biology Corporation
Experimental: as §1, §2

STK22D/TSSK1 = biological target: T6, STK22D/TSSK1 (Homo sapiens, UniProt Q9BXA7)
T6 construct: purchased Reaction Biology Corporation
Experimental: as §1, §2

KSR2 = biological target: T7, KSR2 (Homo sapiens, UniProt Q6VAB6)
T7 construct: purchased Reaction Biology Corporation
Experimental: as §1, §2

LRRK2 = biological target: T8, LRRK2 (Homo sapiens, UniProt Q5S007)
T8 construct: purchased Reaction Biology Corporation
Experimental: as §1, §2

PLK3 = biological target: T9, PLK3 (Homo sapiens, UniProt Q9H4B4)
T9 construct: purchased Reaction Biology Corporation
Experimental: as §1, §2

DAPK1 = biological target: T10, DAPK1 (Homo sapiens, UniProt P53355)
T10 construct: purchased Reaction Biology Corporation
Experimental: as §1, §2

SGK1 = biological target: T11, SGK1 (Homo sapiens, UniProt O00141)
T11 construct: purchased Reaction Biology Corporation
Experimental: as §1, §2

HIPK3 = biological target: T12, HIPK3 (Homo sapiens, UniProt Q9H422)
T12 construct: purchased Reaction Biology Corporation
Experimental: as §1, §2

JAK3 = biological target: T13, JAK3 (Homo sapiens, UniProt P52333)
T13 construct: purchased Reaction Biology Corporation
Experimental: as §1, §2

NEK6 = biological target: T14, NEK6 (Homo sapiens, UniProt Q9HC98)
T14 construct: purchased Reaction Biology Corporation
Experimental: as §1, §2

GSK3a = biological target: T15, GSK3a (Homo sapiens, UniProt P49840)
T15 construct: purchased Reaction Biology Corporation
Experimental: as §1, §2

MEKK1 = biological target: T16, MEKK1 (Homo sapiens, UniProt Q13233)
T16 construct: purchased Reaction Biology Corporation
Experimental: as §1, §2

LATS1 = biological target: T17, LATS1 (Homo sapiens, UniProt O95835)
T17 construct: purchased Reaction Biology Corporation
Experimental: as §1, §2

TLK1 = biological target: T18, TLK1 (Homo sapiens, UniProt Q9UKI8)
T18 construct: purchased Reaction Biology Corporation
Experimental: as §1, §2

ERK1 = biological target: T19, ERK1 (Homo sapiens, UniProt P27361)
T19 construct: purchased Reaction Biology Corporation
T19 sequence (P27361 whole entry): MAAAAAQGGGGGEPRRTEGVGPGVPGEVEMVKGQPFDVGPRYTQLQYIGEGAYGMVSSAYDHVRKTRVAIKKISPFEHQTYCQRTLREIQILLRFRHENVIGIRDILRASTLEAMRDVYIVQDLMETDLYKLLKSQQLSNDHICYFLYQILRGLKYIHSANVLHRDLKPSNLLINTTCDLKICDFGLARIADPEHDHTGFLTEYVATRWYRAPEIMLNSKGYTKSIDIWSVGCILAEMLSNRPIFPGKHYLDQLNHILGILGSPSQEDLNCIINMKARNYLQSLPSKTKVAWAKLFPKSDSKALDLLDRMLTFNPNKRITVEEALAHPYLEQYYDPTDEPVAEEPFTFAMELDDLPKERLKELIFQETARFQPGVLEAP
Experimental: as §1, §2

DCAMKL2 = biological target: T20, DCAMKL2 (Homo sapiens, UniProt Q8N568)
T20 construct: purchased Reaction Biology Corporation
Experimental: as §1, §2

TGFBR2 = biological target: T21, TGFBR2 (Homo sapiens, UniProt P37173)
T21 construct: purchased Reaction Biology Corporation
Experimental: as §1, §2

HIPK2 = biological target: T22, HIPK2 (Homo sapiens, UniProt Q9H2X6)
T22 construct: purchased Reaction Biology Corporation
T22 sequence (Q9H2X6 whole entry): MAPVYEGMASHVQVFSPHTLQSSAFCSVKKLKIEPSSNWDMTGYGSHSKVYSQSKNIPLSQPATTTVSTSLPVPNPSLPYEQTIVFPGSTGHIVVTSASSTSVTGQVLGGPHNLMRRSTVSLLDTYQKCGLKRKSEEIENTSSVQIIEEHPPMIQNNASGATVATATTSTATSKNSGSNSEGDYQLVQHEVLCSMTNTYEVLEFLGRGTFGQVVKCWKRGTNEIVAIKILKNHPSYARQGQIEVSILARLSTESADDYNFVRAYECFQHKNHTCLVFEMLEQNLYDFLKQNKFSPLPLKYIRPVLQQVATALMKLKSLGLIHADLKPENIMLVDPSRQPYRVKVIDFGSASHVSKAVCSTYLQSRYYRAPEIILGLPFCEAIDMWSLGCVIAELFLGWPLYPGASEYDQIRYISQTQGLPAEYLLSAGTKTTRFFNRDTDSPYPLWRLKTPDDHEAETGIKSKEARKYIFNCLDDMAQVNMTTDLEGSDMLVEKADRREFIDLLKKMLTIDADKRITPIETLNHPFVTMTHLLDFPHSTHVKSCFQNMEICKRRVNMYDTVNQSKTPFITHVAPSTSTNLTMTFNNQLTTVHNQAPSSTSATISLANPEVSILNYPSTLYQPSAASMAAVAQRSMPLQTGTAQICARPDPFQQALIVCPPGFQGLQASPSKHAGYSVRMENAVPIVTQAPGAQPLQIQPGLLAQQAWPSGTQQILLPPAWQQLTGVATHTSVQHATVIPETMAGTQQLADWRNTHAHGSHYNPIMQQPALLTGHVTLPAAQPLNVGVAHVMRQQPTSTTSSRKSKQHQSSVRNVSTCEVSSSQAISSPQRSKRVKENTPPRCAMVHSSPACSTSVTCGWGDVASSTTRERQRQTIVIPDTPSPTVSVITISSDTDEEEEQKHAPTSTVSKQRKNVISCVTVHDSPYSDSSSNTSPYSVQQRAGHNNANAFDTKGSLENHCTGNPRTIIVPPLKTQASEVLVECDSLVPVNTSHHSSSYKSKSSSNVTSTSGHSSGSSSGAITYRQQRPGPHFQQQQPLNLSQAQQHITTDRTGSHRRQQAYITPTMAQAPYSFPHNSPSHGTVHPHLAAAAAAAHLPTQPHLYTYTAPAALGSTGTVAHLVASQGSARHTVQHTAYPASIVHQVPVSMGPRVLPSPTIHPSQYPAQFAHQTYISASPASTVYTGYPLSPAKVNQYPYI
Experimental: as §1, §2

SIK2 = biological target: T23, SIK2 (Homo sapiens, UniProt Q9H0K1)
T23 construct: purchased Reaction Biology Corporation
T23 sequence (Q9H0K1 whole entry): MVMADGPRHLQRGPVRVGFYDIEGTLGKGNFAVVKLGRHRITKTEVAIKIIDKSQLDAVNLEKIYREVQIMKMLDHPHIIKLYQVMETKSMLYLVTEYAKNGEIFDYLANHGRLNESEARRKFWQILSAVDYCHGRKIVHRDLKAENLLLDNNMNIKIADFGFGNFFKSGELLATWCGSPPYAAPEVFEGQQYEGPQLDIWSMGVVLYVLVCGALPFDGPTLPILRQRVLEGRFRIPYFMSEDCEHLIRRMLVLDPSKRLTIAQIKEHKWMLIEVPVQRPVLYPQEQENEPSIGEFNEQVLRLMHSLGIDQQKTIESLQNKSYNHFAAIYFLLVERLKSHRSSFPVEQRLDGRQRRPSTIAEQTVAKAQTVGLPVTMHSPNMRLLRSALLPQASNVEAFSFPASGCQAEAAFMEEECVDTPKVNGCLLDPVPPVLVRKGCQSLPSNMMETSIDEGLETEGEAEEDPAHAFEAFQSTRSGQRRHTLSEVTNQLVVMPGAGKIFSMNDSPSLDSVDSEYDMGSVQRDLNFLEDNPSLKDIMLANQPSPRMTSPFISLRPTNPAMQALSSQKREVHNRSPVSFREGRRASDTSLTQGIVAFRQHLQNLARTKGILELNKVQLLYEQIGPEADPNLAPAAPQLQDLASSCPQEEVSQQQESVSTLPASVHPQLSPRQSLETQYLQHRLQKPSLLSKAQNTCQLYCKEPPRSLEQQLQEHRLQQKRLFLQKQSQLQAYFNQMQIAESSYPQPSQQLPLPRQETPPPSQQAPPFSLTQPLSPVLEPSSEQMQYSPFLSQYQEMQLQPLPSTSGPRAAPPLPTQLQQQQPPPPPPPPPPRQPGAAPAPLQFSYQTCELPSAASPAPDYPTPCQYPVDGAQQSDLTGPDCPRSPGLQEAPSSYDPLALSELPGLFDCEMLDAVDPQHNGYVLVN
Experimental: as §1, §2

LKB1 = biological target: T24, LKB1 (Homo sapiens, UniProt Q15831)
T24 construct: purchased Reaction Biology Corporation
Experimental: as §1, §2

PLK4/SAK = biological target: T25, PLK4/SAK (Homo sapiens, UniProt O00444)
T25 construct: purchased Reaction Biology Corporation
Experimental: as §1, §2

NLK = biological target: T26, NLK (Homo sapiens, UniProt Q9UBE8)
T26 construct: purchased Reaction Biology Corporation
Experimental: as §1, §2

DYRK2 = biological target: T27, DYRK2 (Homo sapiens, UniProt Q92630)
T27 construct: purchased Reaction Biology Corporation
Experimental: as §1, §2

MUSK = biological target: T28, MUSK (Homo sapiens, UniProt O15146)
T28 construct: purchased Reaction Biology Corporation
T28 sequence (O15146 24-869): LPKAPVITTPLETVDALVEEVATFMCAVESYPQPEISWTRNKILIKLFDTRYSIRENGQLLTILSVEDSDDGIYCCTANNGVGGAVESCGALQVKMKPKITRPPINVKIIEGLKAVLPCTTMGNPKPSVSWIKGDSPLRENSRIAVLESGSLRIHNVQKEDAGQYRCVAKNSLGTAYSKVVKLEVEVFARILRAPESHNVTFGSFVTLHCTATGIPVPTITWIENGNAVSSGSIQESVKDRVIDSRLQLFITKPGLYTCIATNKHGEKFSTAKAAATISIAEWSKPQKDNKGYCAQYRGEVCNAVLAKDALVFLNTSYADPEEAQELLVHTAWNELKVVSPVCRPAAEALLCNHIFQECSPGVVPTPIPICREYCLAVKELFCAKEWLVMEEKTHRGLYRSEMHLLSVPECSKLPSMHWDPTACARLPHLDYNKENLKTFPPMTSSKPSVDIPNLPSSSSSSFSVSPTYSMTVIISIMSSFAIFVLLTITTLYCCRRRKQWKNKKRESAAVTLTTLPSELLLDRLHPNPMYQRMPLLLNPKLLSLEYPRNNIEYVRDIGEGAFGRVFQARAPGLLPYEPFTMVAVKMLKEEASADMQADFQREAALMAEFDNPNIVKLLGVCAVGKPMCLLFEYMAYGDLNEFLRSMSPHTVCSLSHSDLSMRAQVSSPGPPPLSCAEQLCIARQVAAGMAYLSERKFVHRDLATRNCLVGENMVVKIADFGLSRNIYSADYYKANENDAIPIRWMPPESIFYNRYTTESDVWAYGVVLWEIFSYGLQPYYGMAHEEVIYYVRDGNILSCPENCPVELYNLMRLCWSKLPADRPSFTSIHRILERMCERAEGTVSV
Experimental: as §1, §2

MLK3/MAP3K11 = biological target: T29, MLK3/MAP3K11 (Homo sapiens, UniProt Q16584)
T29 construct: purchased Reaction Biology Corporation
Experimental: as §1, §2

LYN B = biological target: T30, LYN B (Homo sapiens, UniProt P07948)
T30 construct: purchased Reaction Biology Corporation
Experimental: as §1, §2

SIK3 = biological target: T31, SIK3 (Homo sapiens, UniProt Q9Y2K2)
T31 construct: purchased Reaction Biology Corporation
Experimental: as §1, §2

ARAF = biological target: T32, ARAF (Homo sapiens, UniProt P10398)
T32 construct: purchased Reaction Biology Corporation
Experimental: as §1, §2

WEE1 = biological target: T33, WEE1 (Homo sapiens, UniProt P30291)
T33 construct: purchased Reaction Biology Corporation
T33 sequence (P30291 whole entry): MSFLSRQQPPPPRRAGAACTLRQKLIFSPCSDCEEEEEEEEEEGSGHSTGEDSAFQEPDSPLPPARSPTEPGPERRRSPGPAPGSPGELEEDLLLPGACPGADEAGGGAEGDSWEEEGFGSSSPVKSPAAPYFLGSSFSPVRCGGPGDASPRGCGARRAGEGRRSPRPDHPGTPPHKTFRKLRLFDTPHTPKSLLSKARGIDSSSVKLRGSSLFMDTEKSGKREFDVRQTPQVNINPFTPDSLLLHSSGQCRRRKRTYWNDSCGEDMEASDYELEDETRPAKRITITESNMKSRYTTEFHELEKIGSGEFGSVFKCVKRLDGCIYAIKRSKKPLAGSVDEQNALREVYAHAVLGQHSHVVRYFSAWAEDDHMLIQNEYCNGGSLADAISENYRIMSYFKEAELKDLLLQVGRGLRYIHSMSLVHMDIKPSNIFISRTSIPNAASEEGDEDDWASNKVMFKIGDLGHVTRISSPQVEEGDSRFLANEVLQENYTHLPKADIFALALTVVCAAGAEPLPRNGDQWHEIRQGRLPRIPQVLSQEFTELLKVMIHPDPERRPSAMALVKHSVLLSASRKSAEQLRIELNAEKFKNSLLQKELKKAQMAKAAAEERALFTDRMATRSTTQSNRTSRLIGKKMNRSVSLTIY
Experimental: as §1, §2

`CC(=O)Nc1nc2ccc(-c3cnc(C)c(NC(=O)OC4CCCCC4)c3)cc2s1` [PK68, cyclohexyl (5-(2-acetamidobenzo[d]thiazol-6-yl)-2-methylpyridin-3-yl)carbamate] was tested, and the Activity% (CSK; 1 μM) was 91.36%, the activity at 1 µM (CSK) was 92.8% and the Activity% (CDK17/cyclin Y (PCTK2); 1 μM) was 77.31%. The activity at 1 µM (CDK17/cyclin Y (PCTK2)) was 79%, the Activity% (MRCKb/CDC42BPB; 1 μM) was 101.65% and the activity at 1 µM (MRCKb/CDC42BPB) was 104%. The Activity% (CDK1/cyclin A; 1 μM) was 96.92%, the activity at 1 µM (CDK1/cyclin A) was 97.2% and the Activity% (RET; 1 μM) was 66.89%. For the same molecule, the activity at 1 µM (RET) was 67.7%, the Activity% (STK22D/TSSK1; 1 μM) was 103.75% and the activity at 1 µM (STK22D/TSSK1) was 104%. For the same molecule, the Activity% (KSR2; 1 μM) was 99.64%, the activity at 1 µM (KSR2) was 100% and the Activity% (LRRK2; 1 μM) was 66.88%. For the same molecule, the activity at 1 µM (LRRK2) was 67.7%, the Activity% (PLK3; 1 μM) was 104.01% and the activity at 1 µM (PLK3) was 105%. It also gave an Activity% (DAPK1; 1 μM) of 87.16%, an activity at 1 µM (DAPK1) of 88.5% and an Activity% (SGK1; 1 μM) of 93.47%. For the same molecule, the activity at 1 µM (SGK1) was 93.8%, the Activity% (HIPK3; 1 μM) was 63.99% and the activity at 1 µM (HIPK3) was 66.4%. It also gave an Activity% (JAK3; 1 μM) of 92.17%, an activity at 1 µM (JAK3) of 92.9% and an Activity% (NEK6; 1 μM) of 93.63%. The activity at 1 µM (NEK6) was 98.4%, the Activity% (GSK3a; 1 μM) was 101.33% and the activity at 1 µM (GSK3a) was 102%. The Activity% (MEKK1; 1 μM) was 92.88%, the activity at 1 µM (MEKK1) was 95.3% and the Activity% (LATS1; 1 μM) was 101.83%. It also gave an activity at 1 µM (LATS1) of 103%, an Activity% (TLK1; 1 μM) of 97.39% and an activity at 1 µM (TLK1) of 99.2%. It also gave an Activity% (ERK1; 1 μM) of 87.90%, an activity at 1 µM (ERK1) of 91.6% and an Activity% (DCAMKL2; 1 μM) of 99.58%. The activity at 1 µM (DCAMKL2) was 100%, the Activity% (TGFBR2; 1 μM) was 114.72% and the activity at 1 µM (TGFBR2) was 115%. It also gave an Activity% (HIPK2; 1 μM) of 110.22%, an activity at 1 µM (HIPK2) of 111% and an Activity% (SIK2; 1 μM) of 94.58%. It also gave an activity at 1 µM (SIK2) of 95.5%, an Activity% (LKB1; 1 μM) of 102.07% and an activity at 1 µM (LKB1) of 103%. The Activity% (PLK4/SAK; 1 μM) was 89.27%, the activity at 1 µM (PLK4/SAK) was 91.8% and the Activity% (NLK; 1 μM) was 98.89%. The activity at 1 µM (NLK) was 103%, the Activity% (DYRK2; 1 μM) was 85.35% and the activity at 1 µM (DYRK2) was 86.3%. For the same molecule, the Activity% (MUSK; 1 μM) was 70.88%, the activity at 1 µM (MUSK) was 75.9% and the Activity% (MLK3/MAP3K11; 1 μM) was 82.77%. The activity at 1 µM (MLK3/MAP3K11) was 82.9%, the Activity% (LYN B; 1 μM) was 97.70% and the activity at 1 µM (LYN B) was 98%. The Activity% (SIK3; 1 μM) was 94.84%, the activity at 1 µM (SIK3) was 99.4% and the Activity% (ARAF; 1 μM) was 60.01%. The activity at 1 µM (ARAF) was 60.5%, the Activity% (WEE1; 1 μM) was 94.05% and the activity at 1 µM (WEE1) was 95.7%.
